Assay [1] addresses T1, M1 muscarinic receptor (Homo sapiens, UniProt P11229).
T1 construct: expressed in transfected cells; host or cells: CHO (M1-CHO)
T1 sequence (P11229 1-460): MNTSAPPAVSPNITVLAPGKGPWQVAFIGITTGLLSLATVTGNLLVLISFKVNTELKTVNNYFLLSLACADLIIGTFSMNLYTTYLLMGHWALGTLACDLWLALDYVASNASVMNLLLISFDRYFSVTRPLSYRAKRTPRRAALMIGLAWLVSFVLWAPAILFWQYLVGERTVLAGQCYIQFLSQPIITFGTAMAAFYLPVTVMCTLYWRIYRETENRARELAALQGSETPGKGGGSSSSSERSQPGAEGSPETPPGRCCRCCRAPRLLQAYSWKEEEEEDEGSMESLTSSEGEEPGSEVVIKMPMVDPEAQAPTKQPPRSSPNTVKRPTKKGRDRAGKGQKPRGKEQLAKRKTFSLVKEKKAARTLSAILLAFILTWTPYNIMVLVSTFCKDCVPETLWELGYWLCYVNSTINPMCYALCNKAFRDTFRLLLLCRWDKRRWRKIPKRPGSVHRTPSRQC
Kind of assay: Functional mobilization of intracellular calcium (FLIPR) in M1-CHO cells. The class given is cell-based. Conditions: Table 4; for Emax: 100% efficacy is the maximum response obtained with the Carbachol control; for M1 Activity: modulating M1 receptor. The essentials:
(§1)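 Intracellular calcium rise is measured by FLIPR fluorescence over 60 sec in CHO cells carrying human M1 or M4 receptors. Compounds are tested alone as agonists, or pre-incubated 15 min (or co-applied) ahead of carbachol at its EC80 to detect inhibition.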
For orientation: A change in cytosolic calcium serves as a functional read-out for many receptors and channels.

Assay [2] addresses T2, M4 muscarinic receptor (Homo sapiens, UniProt P08173).
T2 construct: expressed in transfected cells; host or cells: CHO (M4-CHO)
T2 sequence (P08173 1-479): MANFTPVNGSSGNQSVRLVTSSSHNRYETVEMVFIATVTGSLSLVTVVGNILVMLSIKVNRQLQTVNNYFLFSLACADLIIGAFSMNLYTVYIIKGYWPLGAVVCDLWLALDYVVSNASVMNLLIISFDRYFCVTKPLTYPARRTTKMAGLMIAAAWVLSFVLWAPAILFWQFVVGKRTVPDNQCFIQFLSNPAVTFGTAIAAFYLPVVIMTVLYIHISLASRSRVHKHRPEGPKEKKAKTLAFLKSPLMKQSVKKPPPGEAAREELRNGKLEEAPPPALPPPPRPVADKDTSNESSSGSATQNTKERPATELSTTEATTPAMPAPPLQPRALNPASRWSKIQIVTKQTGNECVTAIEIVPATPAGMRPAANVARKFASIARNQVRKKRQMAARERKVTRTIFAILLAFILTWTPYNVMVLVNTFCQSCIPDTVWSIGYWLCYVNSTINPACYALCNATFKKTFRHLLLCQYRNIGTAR
The assay can be described thus: Functional mobilization of intracellular calcium (FLIPR) in M4-CHO cells. The class given is cell-based. The settings on record: Table 4; for Emax: 100% efficacy is the maximum response obtained with the Carbachol control; for M4 Activity: modulating M4 receptor. The essentials:
as §1

Data on 24 molecules can be found in patent US7786141B2 (Vertex Pharmaceuticals Incorporated, priority 2004, dated 2010).

Where only a bound is given, the exact number is not on record here.

The term Emax denotes the maximal effect, on the per cent scale that the assay sets.

For `CC(=O)N[C@H]1CCC2(CCN(CCCC3CCCCC3)CC2)c2ccccc21` [compound 452], in assay [1], the Emax is 25 to 100% and the “M1 Activity” value is recorded as “xxx (activity was measured to be less than 2.0 μM)”. In addition, in assay [2], the Emax is under 25% and the “M4 Activity” value is “x (activity was measured to be greater than 5.0 μM)”.

As for `C#CCOC(=O)N1CCC(N2CCC3(CC2)CN(C(C)=O)c2cccc(C)c23)CC1` [compound 453], in assay [1], the Emax was 25 to 100% and the “M1 Activity” value was “xxx (activity was measured to be less than 2.0 μM)”. For the same molecule, in assay [2], the Emax was under 25% and the “M4 Activity” value is reported as “x (activity was measured to be greater than 5.0 μM)”.

Consider `CCC(=O)CCN1CCC(N2CCC3(CC2)CN(C(C)=O)c2ccc(F)cc23)CC1` [compound 454], for which, in assay [1], the Emax was under 25% and the “M1 Activity” value was “x (activity was measured to be greater than 5.0 μM)”. In assay [2], the Emax is under 25% and the “M4 Activity” value is on record as “x (activity was measured to be greater than 5.0 μM)”.

On to `CCC#CCOC(=O)N1CC[C@H](CN2CCC3(CC2)CN(C(C)=O)c2cccc(C)c23)C1` [compound 455], for which, in assay [1], the Emax fell in the range of 25 to 100% and the “M1 Activity” value is recorded as “xxx (activity was measured to be less than 2.0 μM)”. In addition, in assay [2], the Emax was in the range of 25 to 100% and the “M4 Activity” value is “xxx (activity was measured to be less than 2.0 μM)”.

Regarding `CCCC#CCOC(=O)N1CCC(N2CCC3(CC2)CN(C(=O)N(C)C)c2ccc(F)cc23)CC1` [compound 456], in assay [1], the Emax lay within 25 to 100% and the “M1 Activity” value was “xxx (activity was measured to be less than 2.0 μM)”. Moreover, in assay [2], the Emax is 25 to 100% and the “M4 Activity” value was “xxx (activity was measured to be less than 2.0 μM)”.

With `CN(C)C(=O)N1CC2(CCN(C3CCN(c4ccncc4)CC3)CC2)c2cc(F)ccc21` [compound 458], in assay [1], the Emax was under 25% and the “M1 Activity” value is recorded as “x (activity was measured to be greater than 5.0 μM)”. In assay [2], the Emax is under 25% and the “M4 Activity” value is listed as “x (activity was measured to be greater than 5.0 μM)”.

As for `COCCOC(=O)N1CC[C@@H](CN2CCC3(CC2)CN(C(C)=O)c2ccccc23)C1` [compound 459], in assay [1], the Emax is 25 to 100% and the “M1 Activity” value was “x (activity was measured to be greater than 5.0 μM)”. In assay [2], the maximum response (Emax) was under 25%; the “M4 Activity” value is “xx (activity was measured to be between 2.0 μM and 5.0 μM)”.

`COCCN1CC2(CCN(C3CCN(C(=O)OCCF)CC3)CC2)c2cc(F)ccc21` [compound 460]: in assay [1], the Emax lay within 25 to 100% and the “M1 Activity” value was “xxx (activity was measured to be less than 2.0 μM)”. Besides, in assay [2], the Emax was 25 to 100% and the “M4 Activity” value is recorded as “xxx (activity was measured to be less than 2.0 μM)”.

As for `CC(=O)N1CC2(CCN(C3CCN(c4cncc(-c5ccccc5F)n4)CC3)CC2)c2ccccc21` [compound 461], in assay [1], the Emax fell in the range of 25 to 100%; the “M1 Activity” value was “xx (activity was measured to be between 2.0 μM and 5.0 μM)”. In assay [2], the Emax was under 25% and the “M4 Activity” value is “x (activity was measured to be greater than 5.0 μM)”.

Regarding `CC(=O)CN1CC2(CCN(C3CC4CCC(C4)C3)CC2)c2cc(F)ccc21` (stereo not drawn) [compound 462], in assay [1], the Emax was in the range of 25 to 100% and the “M1 Activity” value is recorded as “xxx (activity was measured to be less than 2.0 μM)”. In assay [2], the Emax lay within 25 to 100% and the “M4 Activity” value is given as “xxx (activity was measured to be less than 2.0 μM)”.

Take `C[C@@H](O)CC(=O)N1CCC(N2CCC3(CC2)CN(C(=O)N(C)C)c2ccc(F)cc23)CC1` [compound 463]: in assay [1], the Emax was 25 to 100% and the “M1 Activity” value is on record as “x (activity was measured to be greater than 5.0 μM)”. In assay [2], the Emax is under 25% and the “M4 Activity” value is listed as “x (activity was measured to be greater than 5.0 μM)”.

For `CCC(=O)N1CCC(N2CCC3(CC2)CN(C(=O)N(C)C)c2ccc(F)cc23)CC1` [compound 464], in assay [1], the Emax lay within 25 to 100%; the “M1 Activity” value is “xx (activity was measured to be between 2.0 μM and 5.0 μM)”. Also, in assay [2], the Emax lay within 25 to 100%; the “M4 Activity” value was “xx (activity was measured to be between 2.0 μM and 5.0 μM)”.

Consider `CCOC(=O)N1C2CCC1CC(N1CCC3(CC1)CN(C(C)=O)c1ccc(OC(F)(F)F)cc13)C2` (stereo not drawn) [compound 466], for which, in assay [1], the Emax lay in the range of 25 to 100% and the “M1 Activity” value was “xxx (activity was measured to be less than 2.0 μM)”. Besides, in assay [2], the Emax fell in the range of 25 to 100% and the “M4 Activity” value is on record as “xxx (activity was measured to be less than 2.0 μM)”.

Regarding `CCOC(=O)N1CCC(N2CCC3(CC2)CN(C(C)=O)c2c(-c4cccc(OC)c4)cccc23)CC1` [compound 467], in assay [1], the Emax was in the range of 25 to 100%; the “M1 Activity” value is “xx (activity was measured to be between 2.0 μM and 5.0 μM)”. Besides, in assay [2], the Emax is 25 to 100%; the “M4 Activity” value was “xx (activity was measured to be between 2.0 μM and 5.0 μM)”.

Take `CN(C)C(=O)N[C@H]1CCC2(CCN(C3CC4CCC(C4)C3)CC2)c2ccccc21` (stereo partly drawn) [compound 468]: in assay [1], the Emax was in the range of 25 to 100%; the “M1 Activity” value was “xx (activity was measured to be between 2.0 μM and 5.0 μM)”. For the same molecule, in assay [2], the Emax was 25 to 100% and the “M4 Activity” value is “xxx (activity was measured to be less than 2.0 μM)”.

For `CCCN1CC2(CCN(C3CCN(C(=O)OCC)CC3)CC2)c2cc(F)ccc21` [compound 469], in assay [1], the Emax lay within 25 to 100% and the “M1 Activity” value is “xxx (activity was measured to be less than 2.0 μM)”. In addition, in assay [2], the Emax fell in the range of 25 to 100% and the “M4 Activity” value is “xxx (activity was measured to be less than 2.0 μM)”.

Turning to `Cc1ccc2c(c1)C(=O)CC21CCN(CC2C[C@H]3CC[C@H]2C3)CC1` (stereo partly drawn) [compound 470], in assay [1], the Emax was 25 to 100%; the “M1 Activity” value was “xx (activity was measured to be between 2.0 μM and 5.0 μM)”. In addition, in assay [2], the Emax was in the range of 25 to 100%; the “M4 Activity” value is “xx (activity was measured to be between 2.0 μM and 5.0 μM)”.

For `CC(=O)N1CC2(CCN(C3CCN(c4nc(C)cs4)CC3)CC2)c2ccccc21` [compound 471], in assay [1], the Emax lay within 25 to 100%; the “M1 Activity” value was “xx (activity was measured to be between 2.0 μM and 5.0 μM)”. In assay [2], the Emax lay in the range of 25 to 100%; the “M4 Activity” value is “xx (activity was measured to be between 2.0 μM and 5.0 μM)”.

Take `CCOC(=O)N1CCC(N2CCC3(CC2)CN(C2CCC(=O)CC2)c2ccccc23)CC1` [compound 472]: in assay [1], the maximal effect (Emax) is over 100% and the “M1 Activity” value is reported as “xxx (activity was measured to be less than 2.0 μM)”. In assay [2], the Emax is 25 to 100% and the “M4 Activity” value is on record as “xxx (activity was measured to be less than 2.0 μM)”.

For `CCOC(=O)N1CCC(N2CCCC3(CC2)CN(C(C)=O)c2ccc(F)cc23)C1` (stereo not drawn) [compound 473], in assay [1], the Emax lay within 25 to 100% and the “M1 Activity” value is “x (activity was measured to be greater than 5.0 μM)”. For the same molecule, in assay [2], the Emax is under 25% and the “M4 Activity” value is listed as “x (activity was measured to be greater than 5.0 μM)”.

For the molecule `COCCN1CCC(N2CCC3(CC2)CN(C(C)=O)c2ccc(F)cc23)CC1` [compound 474], in assay [1], the Emax is under 25% and the “M1 Activity” value is recorded as “x (activity was measured to be greater than 5.0 μM)”. Moreover, in assay [2], the Emax is under 25% and the “M4 Activity” value is given as “x (activity was measured to be greater than 5.0 μM)”.

Take `CC(=O)N1CC2(CCN(C3CC4CCC(C3)N4C(=O)OCC(C)(C)C)CC2)c2ccccc21` (stereo not drawn) [compound 476]: in assay [1], the Emax is under 25% and the “M1 Activity” value is “x (activity was measured to be greater than 5.0 μM)”. Besides, in assay [2], the Emax was under 25% and the “M4 Activity” value is given as “x (activity was measured to be greater than 5.0 μM)”.

Turning to `CCCCc1cncc(N2CCC(N3CCC4(CC3)CN(C(C)=O)c3ccccc34)CC2)n1` [compound 477], in assay [1], the Emax is under 25% and the “M1 Activity” value is “x (activity was measured to be greater than 5.0 μM)”. In assay [2], the Emax was under 25% and the “M4 Activity” value is listed as “x (activity was measured to be greater than 5.0 μM)”.

As for `CCCOC(=O)N1CC[C@@H](CN2CCC3(CC2)CN(C(C)=O)c2ccccc23)C1` [compound 478], in assay [1], the Emax is under 25% and the “M1 Activity” value is “x (activity was measured to be greater than 5.0 μM)”. Besides, in assay [2], the Emax was under 25% and the “M4 Activity” value was “x (activity was measured to be greater than 5.0 μM)”.
